Reference: ChEMBL document CHEMBL1201862, “PubChem BioAssay data set” (2004)
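Assay format: 96-well plates, 48-hour exposure. GI50 is the concentration that inhibits growth by half.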 The source made the active and inactive calls. Cut-off read from the data, not from the text of the source: active = GI50 up to about 1.1 µM and inactive = higher.

What was measured:
Assay in all cases: DTP human tumour cell line panel, 48 h
U-251 = tested on: U-251
LXFL 529 = tested on: LXFL 529
HCC 2998 = tested on: HCC 2998
SF-539 = tested on: SF-539
OVCAR-5 = tested on: OVCAR-5
SNB-19 = tested on: SNB-19
UACC-62 = tested on: UACC-62
IGROV-1 = tested on: IGROV-1
KM-20L2 = tested on: KM-20L2
M14 = tested on: M14
A549 = tested on: A549
A498 = tested on: A498
MOLT-4 = tested on: MOLT-4
HCT-116 = tested on: HCT-116
TK-10 = tested on: TK-10
HOP-92 = tested on: HOP-92

Measured: GI50

CC(=O)O[C@]1(C)OC(=O)[C@@H](CC(C)C)N1[N+](=O)[O-]
inactive: U-251 > 100 µM | LXFL 529 > 100 µM | HCC 2998 > 100 µM | SF-539 > 100 µM | OVCAR-5 > 100 µM | SNB-19 > 100 µM | UACC-62 > 100 µM | IGROV-1 > 100 µM | KM-20L2 > 100 µM | M14 > 100 µM | A549 > 100 µM | A498 > 100 µM | MOLT-4 > 100 µM | HCT-116 > 100 µM | TK-10 > 100 µM

CC1(C)OC(=O)C(=C2CC(c3ccccc3)c3ccccc32)C(=O)O1 (stereo not given)
inactive: U-251 > 100 µM | LXFL 529 > 100 µM | HCC 2998 > 100 µM | SF-539 > 100 µM | OVCAR-5 > 100 µM | SNB-19 > 100 µM | IGROV-1 > 100 µM | KM-20L2 > 100 µM | M14 > 100 µM | A549 > 100 µM | A498 > 100 µM | MOLT-4 > 100 µM | HCT-116 > 100 µM | HOP-92 > 100 µM | TK-10 > 100 µM

CCOc1ccc(/N=C\c2cc(OC)c(OC)c(OC)c2)cc1
inactive: U-251 > 100 µM | LXFL 529 > 100 µM | SF-539 > 100 µM | OVCAR-5 > 100 µM | SNB-19 > 100 µM | UACC-62 > 100 µM | IGROV-1 > 100 µM | KM-20L2 > 100 µM | M14 > 100 µM | A549 > 100 µM | A498 > 100 µM | MOLT-4 > 100 µM | HCT-116 > 100 µM | HOP-92 > 100 µM | TK-10 > 100 µM

[O-][S+]1Nc2cccc(C(F)(F)F)c2S1 (stereo not given)
inactive: U-251 31.3 µM | LXFL 529 26.5 µM | HCC 2998 26.4 µM | SF-539 58.6 µM | OVCAR-5 69.8 µM | SNB-19 67.1 µM | UACC-62 27.7 µM | IGROV-1 38.5 µM | KM-20L2 29.9 µM | M14 65.3 µM | A549 34 µM | A498 22.9 µM | MOLT-4 21 µM | HCT-116 27.3 µM | HOP-92 35.6 µM | TK-10 34.4 µM

O=c1nc2sc3ccc4ccccc4c3n2nc1-c1ccccc1
inactive: U-251 19 µM | LXFL 529 44.7 µM | HCC 2998 > 100 µM | SF-539 14.8 µM | OVCAR-5 > 100 µM | SNB-19 29.4 µM | UACC-62 64.4 µM | IGROV-1 25.4 µM | KM-20L2 62.8 µM | M14 44.4 µM | A549 28.6 µM | MOLT-4 > 100 µM | HCT-116 21.7 µM | HOP-92 21.4 µM | TK-10 23.1 µM

CC1=C(/C(C)=N/NC(=O)C(N)=O)Sc2ccccc2N1
inactive: U-251 > 100 µM | LXFL 529 > 100 µM | HCC 2998 > 100 µM | SF-539 > 100 µM | OVCAR-5 > 100 µM | SNB-19 > 100 µM | UACC-62 > 100 µM | IGROV-1 > 100 µM | KM-20L2 > 100 µM | M14 > 100 µM | A549 > 100 µM | A498 > 100 µM | MOLT-4 > 100 µM | HCT-116 10 µM | HOP-92 95.1 µM | TK-10 > 100 µM

O=C(N/C(=C\c1ccc(F)cc1)c1nc2ccccc2[nH]1)c1ccccc1
inactive: U-251 > 100 µM | LXFL 529 > 100 µM | SF-539 > 100 µM | OVCAR-5 > 100 µM | SNB-19 > 100 µM | UACC-62 > 100 µM | IGROV-1 > 100 µM | KM-20L2 > 100 µM | M14 > 100 µM | A549 > 100 µM | A498 > 100 µM | MOLT-4 > 100 µM | HCT-116 > 100 µM | HOP-92 97.1 µM | TK-10 > 100 µM

COc1ccc(C(=O)C(C(=O)C(=O)Nc2nccs2)c2ccc(OC)cc2)cc1 (stereo not given)
inactive: U-251 > 100 µM | LXFL 529 > 100 µM | SF-539 > 100 µM | OVCAR-5 > 100 µM | SNB-19 > 100 µM | UACC-62 > 100 µM | IGROV-1 > 100 µM | KM-20L2 > 100 µM | M14 > 100 µM | A549 > 100 µM | A498 > 100 µM | MOLT-4 > 100 µM | HCT-116 > 100 µM | HOP-92 > 100 µM | TK-10 > 100 µM

CC1=C(C(=O)Nc2cc(F)c(F)cc2F)C(c2ccc3c(c2)OCO3)C(C(=O)Nc2cc(F)c(F)cc2F)=C(C)N1
inactive: U-251 27.2 µM | LXFL 529 23.2 µM | HCC 2998 19.2 µM | SF-539 27.5 µM | OVCAR-5 19.9 µM | SNB-19 38.4 µM | IGROV-1 28.7 µM | KM-20L2 22.3 µM | M14 24.2 µM | A549 22.6 µM | A498 21 µM | MOLT-4 14.2 µM | HOP-92 2.72 µM | TK-10 23.9 µM

C[C@@H]1CC(=O)C2CCCC1C2=O (stereo not given in full)
inactive: U-251 > 100 µM | LXFL 529 > 100 µM | HCC 2998 > 100 µM | SF-539 > 100 µM | OVCAR-5 > 100 µM | SNB-19 > 100 µM | UACC-62 > 100 µM | IGROV-1 > 100 µM | KM-20L2 > 100 µM | M14 > 100 µM | A549 > 100 µM | A498 > 100 µM | MOLT-4 > 100 µM | HCT-116 > 100 µM | HOP-92 > 100 µM | TK-10 > 100 µM

O=C(CCC(=O)Nc1cccc(C(F)(F)F)c1)CC(=O)c1ccc2ccccc2c1
inactive: U-251 > 100 µM | LXFL 529 > 100 µM | HCC 2998 > 100 µM | SF-539 > 100 µM | OVCAR-5 > 100 µM | SNB-19 > 100 µM | UACC-62 > 100 µM | IGROV-1 > 100 µM | KM-20L2 > 100 µM | M14 > 100 µM | A549 > 100 µM | A498 > 100 µM | MOLT-4 > 100 µM | HCT-116 > 100 µM | HOP-92 > 100 µM | TK-10 > 100 µM

COc1cc2cc(OC)c3cc4c(cc3c2c(OC)c1OC)OCO4
inactive: U-251 20.8 µM | LXFL 529 31.3 µM | HCC 2998 11 µM | SF-539 31.6 µM | OVCAR-5 25.2 µM | SNB-19 > 100 µM | UACC-62 19.3 µM | IGROV-1 > 66.8 µM | KM-20L2 11.6 µM | M14 19.7 µM | A549 44.6 µM | A498 > 45.5 µM | MOLT-4 22.8 µM | HCT-116 38.2 µM | HOP-92 > 46 µM | TK-10 48.3 µM

O=[N+]([O-])c1ccc(C2N3CCCCC3[C@@H]3c4[nH]c5ccccc5c4CCN23)cc1 (stereo not given in full)
inactive: U-251 20.2 µM | LXFL 529 16.8 µM | SF-539 13.3 µM | OVCAR-5 25.9 µM | SNB-19 16.6 µM | UACC-62 5.22 µM | IGROV-1 24 µM | KM-20L2 11 µM | M14 16.1 µM | A549 19.5 µM | A498 11.3 µM | MOLT-4 10.2 µM | HCT-116 6.44 µM | HOP-92 44.6 µM | TK-10 10.7 µM

O=C(/C=C/c1ccc(Br)cc1)c1ccc(NCc2nc3ccccc3[nH]2)cc1
inactive: U-251 3.83 µM | LXFL 529 4.24 µM | HCC 2998 6.56 µM | SF-539 10 µM | OVCAR-5 > 59.8 µM | SNB-19 8.79 µM | UACC-62 7.1 µM | IGROV-1 17.3 µM | KM-20L2 4.83 µM | M14 17.9 µM | A549 5.77 µM | A498 19.1 µM | MOLT-4 3.31 µM | HCT-116 4.66 µM | HOP-92 4 µM | TK-10 11.1 µM

O=C(CCc1ccccc1)NS(=O)(=O)c1ccccc1
inactive: U-251 > 100 µM | LXFL 529 > 100 µM | HCC 2998 > 100 µM | SF-539 > 100 µM | OVCAR-5 > 100 µM | SNB-19 > 100 µM | UACC-62 > 100 µM | IGROV-1 > 100 µM | KM-20L2 > 100 µM | M14 > 100 µM | A549 > 100 µM | A498 > 100 µM | MOLT-4 > 100 µM | HCT-116 > 100 µM | HOP-92 > 100 µM | TK-10 > 100 µM

CC(=O)Nc1ccc(-c2nnc(SCC(=O)Nc3ccccc3[N+](=O)[O-])o2)cc1
inactive: U-251 > 100 µM | LXFL 529 29.9 µM | SF-539 34.6 µM | OVCAR-5 > 100 µM | UACC-62 > 100 µM | IGROV-1 > 100 µM | KM-20L2 > 100 µM | M14 > 100 µM | A549 > 100 µM | MOLT-4 71.4 µM | HCT-116 > 100 µM | HOP-92 > 100 µM | TK-10 > 100 µM

Cn1c2ccccc2c2[nH]cc3nc4ccccc4c-3c21
inactive: U-251 18.2 µM | LXFL 529 25.2 µM | HCC 2998 > 100 µM | SF-539 18 µM | OVCAR-5 19.2 µM | SNB-19 26.1 µM | UACC-62 18.5 µM | IGROV-1 18 µM | KM-20L2 16.7 µM | M14 17.9 µM | A549 22.6 µM | A498 18.7 µM | MOLT-4 23.8 µM | HCT-116 12.6 µM | HOP-92 27.2 µM | TK-10 22.3 µM
